# In PubChem BioAssay (NCI):
#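 Dose response: 5 concentrations. Exposure: 48 h. Format: 96-well plates. Endpoint: linear interpolation; highest concentration if not reached. At the TGI there is no net growth.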
# Key:
# Experiment in all cases: NCI tumour cell line growth inhibition, 48 h
# RPMI-8226 leukemia = test system: RPMI-8226 leukemia
# ACHN renal = test system: ACHN renal
# MDA-N = test system: MDA-N
# HS 578T breast = test system: HS 578T breast
# DU-145 prostate = test system: DU-145 prostate
# T-47D breast = test system: T-47D breast
# MDA-MB-435 = test system: MDA-MB-435
# SK-MEL-5 melanoma = test system: SK-MEL-5 melanoma
# CCRF-CEM leukemia = test system: CCRF-CEM leukemia
Compound,TGI (RPMI-8226 leukemia),TGI (ACHN renal),TGI (MDA-N),TGI (HS 578T breast),TGI (DU-145 prostate),TGI (T-47D breast),TGI (MDA-MB-435),TGI (SK-MEL-5 melanoma),TGI (CCRF-CEM leukemia)
NC1CNC(=O)c2c(Cl)sc(Cl)c21 (stereo unspecified),> 100 µM,> 100 µM,> 100 µM,> 100 µM,> 100 µM,> 100 µM,> 100 µM,–,–
CCOn1c(C2(CC3CCN(C(=O)c4ccccc4)CC3)OCCO2)cc2ccccc21,28.1 µM,27.9 µM,30.1 µM,–,31.9 µM,56.2 µM,27.4 µM,24.6 µM,31.7 µM
O=[N+]([O-])c1ccc(NC(=S)N=Nc2c(O)[nH]c3ccc(Br)cc23)cc1,–,18 µM,23.5 µM,39.6 µM,24.2 µM,37.8 µM,25.4 µM,33.4 µM,–
CNC(=O)N(CCC#N)[C@H]1CCCC[C@@H]1N(C(=O)NC)c1ccccc1,> 100 µM,> 100 µM,> 100 µM,–,> 100 µM,> 100 µM,> 100 µM,> 100 µM,> 100 µM
Nc1ccc2[nH]c(-c3cccc(Cl)c3)cc(=O)c2c1,–,> 100 µM,–,> 100 µM,–,> 100 µM,2.39 µM,> 100 µM,> 100 µM
COc1ccc2c(c1)CN1C(=N2)CSC1c1ccccc1Cl (stereo unspecified),29.9 µM,41.8 µM,36.1 µM,82.5 µM,–,> 100 µM,39.9 µM,28.5 µM,–
N#Cc1cc2c(cc1Cl)Sc1nccn1S2(=O)=O,20.8 µM,4.64 µM,–,8.37 µM,6.18 µM,8.57 µM,17.5 µM,22.6 µM,–
O=C(Cc1ccc([N+](=O)[O-])cc1)OCC#CCOC(=O)Cc1ccc([N+](=O)[O-])cc1,–,> 10 µM,> 10 µM,> 10 µM,–,> 10 µM,> 10 µM,> 10 µM,> 10 µM
Cc1cc2[nH]c3c(C#N)c4c(c(=O)n3c2cc1C)CCCC4,–,> 100 µM,> 100 µM,> 100 µM,> 100 µM,> 100 µM,> 100 µM,> 100 µM,> 100 µM
Cc1cn(C(C)OCCN2C(=O)c3ccccc3C2=O)c(=O)[nH]c1=O (stereo unspecified),> 100 µM,> 100 µM,> 100 µM,–,> 100 µM,> 100 µM,> 100 µM,> 100 µM,> 100 µM
O=C1C=C(c2ccccc2)O/C1=C/C(=O)c1ccc(Cl)cc1,25.9 µM,30.5 µM,30.2 µM,55.5 µM,> 100 µM,–,28.5 µM,44.2 µM,> 100 µM
CN(C)CCn1c(=O)c2ccc(NCCCN(C)CCCNc3ccc4c(=O)n(CCN(C)C)c(=O)n5c6ccc([N+](=O)[O-])cc6c(=O)c3c45)c3c(=O)c4cc([N+](=O)[O-])ccc4n(c1=O)c23,–,1.21 µM,0.22 µM,–,0.39 µM,> 100 µM,0.097 µM,0.311 µM,–
COc1ccc2cc(NC(=O)N/N=C\c3ccc(Cl)cc3)ccc2c1,> 100 µM,> 100 µM,> 100 µM,68.8 µM,> 100 µM,–,> 100 µM,–,> 100 µM
CCNC(=O)C1CCCN1C(=O)C(CCCN=C(N)N)NC(=O)C(CC(C)C)NC(=O)C(Cc1c[nH]c2ccccc12)NC(=O)C(Cc1ccc(O)cc1)NC(=O)C(CO)NC(=O)C(Cc1c[nH]c2ccccc12)NC(=O)C(Cc1cnc[nH]1)NC(=O)C1CCC(=O)N1 (stereo unspecified),> 100 µM,> 100 µM,> 100 µM,> 100 µM,> 100 µM,–,> 100 µM,> 100 µM,> 100 µM
Cc1cn([C@@H]2C[C@H]2CO)c(=O)[nH]c1=O,> 100 µM,> 100 µM,> 100 µM,–,> 100 µM,> 100 µM,> 100 µM,> 100 µM,> 100 µM
O=C1C=CC(=O)c2c(O)c(NCCc3ccc(O)cc3)c(Cl)c(O)c21,> 10 µM,> 10 µM,> 10 µM,–,> 10 µM,> 10 µM,> 10 µM,> 10 µM,> 10 µM
O=c1c(-c2ccc(Cl)cc2)nnc2n(Cc3ccccc3)c3ccccc3n12,–,> 100 µM,> 100 µM,> 100 µM,> 100 µM,> 100 µM,> 100 µM,> 100 µM,> 100 µM
